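Assay format: 96-well plates, 48-hour exposure. GI50 marks 50% less growth.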 Active and inactive are the calls of the source. Cut-off read from the data, not from the text of the source: active = GI50 up to about 1.1 µM and inactive = higher.
Legend:
Experiment in all cases: NCI anticancer screen, dose series, 48 h
[1] = tested on: M14
[2] = tested on: UACC-62
[3] = tested on: SK-OV-3
[4] = tested on: SF-539
[5] = tested on: SK-MEL-5
[6] = tested on: OVCAR-5
[7] = tested on: NCI-H23
[8] = tested on: LOX IMVI
[9] = tested on: HT-29
[10] = tested on: MDA-N
[11] = tested on: Malme-3M
[12] = tested on: BT-549
[13] = tested on: HCT-15
[14] = tested on: EKVX
[15] = tested on: NCI-H460
[16] = tested on: UO-31
[17] = tested on: U-251
[18] = tested on: SR
[19] = tested on: SF-295
[20] = tested on: HCT-116
[21] = tested on: RPMI-8226
[22] = tested on: T47D
[23] = tested on: Hs-578T
[24] = tested on: K562
[25] = tested on: TK-10
[26] = tested on: MOLT-4
[27] = tested on: CCRF-CEM
[28] = tested on: MCF7
[29] = tested on: SK-MEL-28
[30] = tested on: HOP-92
[31] = tested on: CAKI-1
[32] = tested on: OVCAR-4
[33] = tested on: NCI/ADR-RES
[34] = tested on: KM12
[35] = tested on: MDA-MB-231
[36] = tested on: SW-620
[37] = tested on: UACC-257
[38] = tested on: HCC 2998
[39] = tested on: 786-0
[40] = tested on: A549
[41] = tested on: ACHN
[42] = tested on: MDA-MB-435
[43] = tested on: SN12C
[44] = tested on: NCI-H226
[45] = tested on: IGROV-1
[46] = tested on: DU-145
[47] = tested on: HL-60
[48] = tested on: RXF 393
[49] = tested on: SNB-75
[50] = tested on: OVCAR-3
[51] = tested on: OVCAR-8
[52] = tested on: NCI-H522
[53] = tested on: A498
[54] = tested on: HOP-62
[55] = tested on: SK-MEL-2
[56] = tested on: PC-3
[57] = tested on: COLO 205
[58] = tested on: SF-268
[59] = tested on: SNB-19

Measured: GI50

C=C(Cl)[C@@](Cl)(CBr)CC[C@@H](Br)C(C)(C)Cl
inactive: [1] 10.8 µM | [3] 9.16 µM | [5] 2.67 µM | [6] 1.59 µM | [7] 8.02 µM | [8] 13.2 µM | [11] 21.7 µM | [12] 3.66 µM | [14] 2.97 µM | [18] 15.4 µM | [26] 22.9 µM | [27] 15.8 µM | [40] 1.43 µM | [42] 1.4 µM | [43] 2.11 µM | [44] 26.2 µM | [45] 11.7 µM | [52] 22.4 µM
active: [2] 0.745 µM | [4] 0.141 µM | [9] 0.253 µM | [10] 0.255 µM | [15] 0.108 µM | [16] 0.834 µM | [17] 0.154 µM | [19] 0.207 µM | [20] 0.25 µM | [21] 0.0566 µM | [22] 0.153 µM | [23] 0.386 µM | [24] 0.473 µM | [25] 0.269 µM | [28] 0.249 µM | [29] 0.394 µM | [30] 0.292 µM | [31] 0.467 µM | [32] 0.912 µM | [33] 0.522 µM | [34] 0.228 µM | [35] 0.211 µM | [36] 0.321 µM | [37] 0.557 µM | [38] 0.488 µM | [39] 0.0603 µM | [41] 0.149 µM | [46] 0.664 µM | [47] 0.3 µM | [48] 0.126 µM | [49] 0.24 µM | [50] 0.506 µM | [51] 0.466 µM | [53] 0.938 µM | [54] 0.103 µM | [55] 0.458 µM | [56] 0.555 µM | [57] 0.5 µM | [58] 0.251 µM | [59] 0.499 µM
0.759 µM: [13]

O=C1C=CC(=O)c2c(O)c(N3CCN(c4ccccn4)CC3)cc(O)c21
active: [11] 0.553 µM | [42] 0.851 µM
3.28 µM: [13]
inactive: [1] 3.29 µM | [2] 5.9 µM | [3] 28.1 µM | [4] 4.85 µM | [5] 1.77 µM | [6] 46.5 µM | [7] 3.4 µM | [8] 3.95 µM | [9] 4.3 µM | [10] 2.41 µM | [12] 10.7 µM | [14] 23.9 µM | [15] 3.24 µM | [16] 8.28 µM | [17] 5.64 µM | [18] 3.19 µM | [19] 17.5 µM | [20] 2.85 µM | [21] 4.68 µM | [22] 29.4 µM | [23] 16.1 µM | [24] 4.38 µM | [25] 34.7 µM | [26] 4.22 µM | [27] 3.07 µM | [28] 3.11 µM | [29] 13.7 µM | [30] 10.2 µM | [31] 8 µM | [32] 11.6 µM | [33] 2.33 µM | [34] 11 µM | [35] 13 µM | [36] 3.58 µM | [37] 4.07 µM | [38] 8.73 µM | [39] 7.24 µM | [40] 5.85 µM | [41] 6.89 µM | [43] 7.6 µM | [44] 45.7 µM | [45] 10.1 µM | [46] 12.6 µM | [47] 3.01 µM | [48] 7.26 µM | [49] 7.41 µM | [50] 4.18 µM | [51] 5.69 µM | [52] 5.06 µM | [53] 34.4 µM | [54] 21 µM | [55] 5.92 µM | [56] 16.2 µM | [57] 5.35 µM | [58] 11.9 µM | [59] 19.2 µM

From ChEMBL document CHEMBL1201862, “PubChem BioAssay data set” (2004)
